Results reported in ChEMBL document CHEMBL3352001, “2,4-Dialkyl-8,9,10,11-tetrahydrobenzo[g]pyrimido[4,5-c]isoquinoline-1,3,7,12(2H,4H)-tetraones as new leads against Mycobacterium tuberculosis” (Eur J Med Chem, 2014).
≈ marks a conversion by molar mass, not a printed value. Where “and” joins values, the source holds several entries; their conditions need not be identical. Equal values may be shown once. Calls of active or inactive are those of the source. No cut-off for these calls is given here.

What was measured:
[1] = tested on: Mycobacterium tuberculosis; assay: Antimycobacterial activity against Mycobacterium tuberculosis H37Rv transformed with pSMT1 luciferase reporter plasmid assessed as growth inhibition after 6 days by luminometry; format: functional; conditions: for GI50: Mycobacterium tuberculosis, H37Rv, 144 h
[2] = tested on: Mycobacterium tuberculosis; assay: Antimicrobial activity against multi-drug resistant Mycobacterium tuberculosis LAM-1 strain clinical isolate assessed as critical concentration to induce 99% growth reduction at 10 to 20 ug/mL by BACTEC_MGIT_960-TB detection system; format: functional
[3] = tested on: Mycobacterium tuberculosis; assay: Antimicrobial activity against multi-drug resistant Mycobacterium tuberculosis LAM-1 strain clinical isolate assessed as growth reduction at 0.1 ug/mL by BACTEC_MGIT_960-TB detection system; format: functional, organism-based
[4] = tested on: Mycobacterium tuberculosis; assay: Antimicrobial activity against multi-drug resistant Mycobacterium tuberculosis LAM-1 strain clinical isolate assessed as growth reduction by BACTEC_MGIT_960-TB detection system; format: functional

Structure (SMILES)	GI90 [1]	GI99 [1]	GI50 [1]	INH [2]	inhibition [3]	MIC [4]
CCCn1c(=O)c2c3c(cnc2n(CCC)c1=O)C(=O)C1=C(C3=O)C2CCC1C2 (stereo not drawn)	4.28 µg/mL (≈ 10.9 µM)	6.23 µg/mL	1.73 µg/mL (≈ 4.4 µM)	–	–	–
Cn1c(=O)c2c3c(cnc2n(C)c1=O)C(=O)C1=C(C3=O)C2CCC1C2 (stereo not drawn)	5.87 µg/mL (≈ 17.4 µM)	10.43 µg/mL	1.58 µg/mL (≈ 4.68 µM)	–	–	–
CCCCCCCn1c(=O)c2c3c(cnc2n(CCCCCCC)c1=O)C(=O)C1=C(C3=O)C2CCC1CC2	3.78 µg/mL (≈ 7.27 µM)	6.89 µg/mL	1.32 µg/mL (≈ 2.54 µM)	10 µg/mL	–	–
CCCCCn1c(=O)c2c3c(cnc2n(CCCCC)c1=O)C(=O)C1=C(C3=O)C2CCC1C2 (stereo not drawn)	4.09 µg/mL (≈ 9.1 µM)	9.54 µg/mL	1.26 µg/mL (≈ 2.8 µM)	–	–	–
CCn1c(=O)c2c3c(cnc2n(CC)c1=O)C(=O)C1=C(C3=O)C2CCC1C2 (stereo not drawn)	5.32 µg/mL (≈ 14.6 µM)	9.21 µg/mL	1.69 µg/mL (≈ 4.63 µM)	–	–	–
CC(C)CCn1c(=O)c2c3c(cnc2n(CCC(C)C)c1=O)C(=O)C1=C(C3=O)C2CCC1C2 (stereo not drawn)	8.11 µg/mL (≈ 18 µM)	16.32 µg/mL	2.41 µg/mL (≈ 5.36 µM)	–	–	–
CC(C)Cn1c(=O)c2c3c(cnc2n(CC(C)C)c1=O)C(=O)C1=C(C3=O)C2CCC1C2 (stereo not drawn)	5.3 µg/mL (≈ 12.6 µM)	11.01 µg/mL	2.08 µg/mL (≈ 4.93 µM)	–	–	–
CC(C)C1CCc2ncc3c(c2C1=O)C(=O)C1=C(C3=O)C2CCC1C2 (stereo not drawn)	39.2 µg/mL (≈ 117 µM)	>100 µg/mL	20.4 µg/mL (≈ 60.8 µM)	–	–	–
CCCCCCn1c(=O)c2c3c(cnc2n(CCCCCC)c1=O)C(=O)C1=C(C3=O)C2CCC1C2 (stereo not drawn)	5.43 µg/mL (≈ 11.4 µM)	11.6 µg/mL	1.22 µg/mL (≈ 2.55 µM)	–	–	–
CCCCn1c(=O)c2c3c(cnc2n(CCCC)c1=O)C(=O)C1=C(C3=O)C2CCC1C2 (stereo not drawn)	4.59 µg/mL (≈ 10.9 µM)	7.23 µg/mL	1.46 µg/mL (≈ 3.46 µM)	–	–	–
CCn1c(=O)c2c3c(cnc2n(CC)c1=O)C(=O)C1=C(C3=O)C2CCC1CC2	4.33 µg/mL (≈ 11.4 µM)	12.06 µg/mL	2.55 µg/mL (≈ 6.72 µM)	–	–	–
CCCCCCCn1c(=O)c2c3c(cnc2n(CCCCCCC)c1=O)C(=O)C1=C(C3=O)C2CCC1C2 (stereo not drawn)	2.45 µg/mL (≈ 4.85 µM)	5.57 µg/mL	0.63 µg/mL (≈ 1.25 µM)	10 µg/mL	–	–
CCCCn1c(=O)c2c3c(cnc2n(CCCC)c1=O)C(=O)C1=C(C3=O)C2CCC1CC2	5.2 µg/mL (≈ 11.9 µM)	9.6 µg/mL	1.84 µg/mL (≈ 4.22 µM)	–	–	–
CC(C)CCn1c(=O)c2c3c(cnc2n(CCC(C)C)c1=O)C(=O)C1=C(C3=O)C2CCC1CC2	10.33 µg/mL (≈ 22.3 µM)	22.88 µg/mL	4.9 µg/mL (≈ 10.6 µM)	–	–	–
CC(C)n1c(=O)c2c3c(cnc2n(C(C)C)c1=O)C(=O)C1=C(C3=O)C2CCC1CC2	2.32 µg/mL (≈ 5.69 µM)	4.89 µg/mL	0.73 µg/mL (≈ 1.79 µM)	10 µg/mL	–	–
NNC(=O)c1ccncc1 [ISONIAZID]	–	0.04 µg/mL and 0.06 µg/mL	0.01 µg/mL (≈ 0.0729 µM)	–	inactive	–
Cn1c(=O)c2c3c(cnc2n(C)c1=O)C(=O)C1=C(C3=O)C2CCC1CC2	6.98 µg/mL (≈ 19.9 µM)	15.43 µg/mL	2.83 µg/mL (≈ 8.05 µM)	–	–	–
CC(C)Cn1c(=O)c2c3c(cnc2n(CC(C)C)c1=O)C(=O)C1=C(C3=O)C2CCC1CC2	9.31 µg/mL (≈ 21.4 µM)	12.28 µg/mL	4.36 µg/mL (≈ 10 µM)	–	–	–
CC(C)C1CCC(=O)c2c1ncc1c2C(=O)C2=C(C1=O)C1CCC2C1 (stereo not drawn)	–	24.66 µg/mL and 48.06 µg/mL	5.55 µg/mL (≈ 16.5 µM)	–	–	–
CCCn1c(=O)c2c3c(cnc2n(CCC)c1=O)C(=O)C1=C(C3=O)C2CCC1CC2	5.98 µg/mL (≈ 14.7 µM)	7.34 µg/mL	2.59 µg/mL (≈ 6.36 µM)	–	–	–
CC(C)n1c(=O)c2c3c(cnc2n(C(C)C)c1=O)C(=O)C1=C(C3=O)C2CCC1C2 (stereo not drawn)	1.5 µg/mL (≈ 3.81 µM)	3 µg/mL	0.52 µg/mL (≈ 1.32 µM)	5 µg/mL	–	5 µg/mL (≈ 12.7 µM)
CCCCCCn1c(=O)c2c3c(cnc2n(CCCCCC)c1=O)C(=O)C1=C(C3=O)C2CCC1CC2	6.13 µg/mL (≈ 12.5 µM)	14.89 µg/mL	1.36 µg/mL (≈ 2.77 µM)	–	–	–
CCCCCn1c(=O)c2c3c(cnc2n(CCCCC)c1=O)C(=O)C1=C(C3=O)C2CCC1CC2	4.78 µg/mL (≈ 10.3 µM)	13.37 µg/mL	1.49 µg/mL (≈ 3.21 µM)	–	–	–
